One data set addresses Trypsin (Sus scrofa, UniProt P00761). Put plainly: porcine trypsin inhibitors, dose response, selectivity assay for Rce1 protease inhibitor project, biochemical, quenched peptide fluorescence, cherry-pick (AID 488789).
For another data set, the target named is CAAX prenyl protease 1 (Saccharomyces cerevisiae S288c, UniProt P47154). Put plainly: Ste24 protease inhibitors, dose response, biochemical, S. cerevisiae, plate reader, cherry-pick (AID 488815).
Data set [1] addresses T1, Cytochrome P450 2C9 (Homo sapiens, UniProt P11712).
Data set [2] concerns the target T2, Mu-type opioid receptor (Homo sapiens, UniProt P35372). Description: SAR Analysis of Antagonists of the MOR Receptor using an Image-Based Assay - Set 2. [Related pubchem assays (depositor defined):AID1777, AID1785, AID1786, AID1966, AID2133, AID2136, AID2284, AID2285, AID2420]. The data set is classed as functional.
For data set [3], the target named is T3, Kappa-type opioid receptor (Homo sapiens, UniProt P41145). Description: SAR analysis of Antagonists of the Kappa Opioid Receptor (KOR) using an Image-Based Assay - Set 2. [Related pubchem assays (depositor defined):AID1777, AID1785, AID1786, AID1966, AID2133, AID2136, AID2284, AID2285, AID2348]. The data set is classed as functional.
Data set [4] deals with T2, Mu-type opioid receptor. Put plainly: SAR Analysis of Agonists of the MOR Receptor using an Image-Based Assay - Set 2. [Related pubchem assays (depositor defined):AID1777, AID1785, AID1786, AID1966, AID2133, AID2136, AID2284, AID2285, AID2352]. The data set is classed as functional.
In data set [5] the target is T3, Kappa-type opioid receptor. Put plainly: SAR analysis of small molecule agonists of the kappa opioid receptor via a luminescent beta-arrestin assay - Set 2. [Related pubchem assays (depositor defined):AID1777, AID1785, AID1786, AID1966, AID2133, AID2136, AID2284, AID449737]. It is filed as functional.
Data set [6] deals with T4, Delta-type opioid receptor (Homo sapiens, UniProt P41143). Description: SAR Analysis of Agonists of the DOR Receptor using an Image-Based Assay - Set 2. [Related pubchem assays (depositor defined):AID1777, AID1785, AID1786, AID1966, AID2133, AID2136, AID2284, AID2285, AID2370]. The data set is classed as functional.
Data set [7] addresses T4, Delta-type opioid receptor. Description: SAR Analysis of Antagonists of the DOR Receptor using an Image-Based Assay - Set 2. [Related pubchem assays (depositor defined):AID1777, AID1785, AID1786, AID1966, AID2133, AID2136, AID2284, AID2285, AID2357]. The data set is classed as functional.
Data set [8] deals with T3, Kappa-type opioid receptor. Put plainly: SAR analysis of Agonists of the Kappa Opioid Receptor (KOR) using an Image-Based Assay - Set 2. [Related pubchem assays (depositor defined):AID1777, AID1786, AID1966, AID2133, AID2136, AID2284, AID2285, AID2359]. The data set is classed as functional.
The test system of data set [9] is Streptococcus sp. 'group A'. Description: growth inhibition of control SK(-) GAS strain, dose response, counter-screen for streptokinase expression inhibitor project, luminescence, kanamycin, BacTiterGlo, confirmation (AID 1900). It is filed as functional, organism-based. (Counterscreens check selectivity or assay interference.)
In another data set the target is T5, Streptokinase A (Streptococcus pyogenes serotype M1, UniProt P10520).
T5 sequence (P10520 whole entry): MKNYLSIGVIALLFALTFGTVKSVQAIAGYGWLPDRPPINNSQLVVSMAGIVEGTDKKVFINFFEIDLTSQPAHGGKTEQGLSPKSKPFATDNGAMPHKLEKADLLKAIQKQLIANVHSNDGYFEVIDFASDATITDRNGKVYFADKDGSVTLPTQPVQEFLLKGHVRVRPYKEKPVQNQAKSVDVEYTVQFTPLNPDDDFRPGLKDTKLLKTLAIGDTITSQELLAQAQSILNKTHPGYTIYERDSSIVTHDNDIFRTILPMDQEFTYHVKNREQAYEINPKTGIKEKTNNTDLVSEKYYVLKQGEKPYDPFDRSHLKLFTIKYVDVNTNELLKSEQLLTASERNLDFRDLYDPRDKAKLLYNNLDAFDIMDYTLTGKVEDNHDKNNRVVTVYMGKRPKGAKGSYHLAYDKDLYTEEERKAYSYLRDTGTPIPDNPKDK
Put plainly: S. pyogenes streptokinase expression inhibitors, potency, dose response, plasminogen activation absorbance, OD405 (AID 1914).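 Further: secreted streptokinase activity via plasminogen activation per viability signal from cell pellet.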 The data set is classed as functional, Streptococcus pyogenes M1 GAS.

The next data set relates to Streptococcus. Description: Group A Streptococcus viability loss, dose response, counter-screen for streptokinase expression inhibitor project, luminescence, BacTiterGlo (AID 1915).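 Further: potency for reduction of bacterial viability or growth.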 It is filed as functional, organism-based.
The target in the next data set is Cytochrome P450 2C19 (Homo sapiens, UniProt P33261). Put plainly: Cytochrome panel assay with activity outcomes. Panel member name: p450-cyp2c19 Compounds with AC50 equal or less than 10 uM are considered active. It is filed as functional.
Another data set deals with Cytochrome P450 2D6 (Homo sapiens, UniProt P10635).
The next data set concerns the target T6, Cytochrome P450 1A2 (Homo sapiens, UniProt P05177).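 Further: PubChem cytochrome P450 panel assay, CYP1A2 panel member.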
T6 sequence (P05177 whole entry): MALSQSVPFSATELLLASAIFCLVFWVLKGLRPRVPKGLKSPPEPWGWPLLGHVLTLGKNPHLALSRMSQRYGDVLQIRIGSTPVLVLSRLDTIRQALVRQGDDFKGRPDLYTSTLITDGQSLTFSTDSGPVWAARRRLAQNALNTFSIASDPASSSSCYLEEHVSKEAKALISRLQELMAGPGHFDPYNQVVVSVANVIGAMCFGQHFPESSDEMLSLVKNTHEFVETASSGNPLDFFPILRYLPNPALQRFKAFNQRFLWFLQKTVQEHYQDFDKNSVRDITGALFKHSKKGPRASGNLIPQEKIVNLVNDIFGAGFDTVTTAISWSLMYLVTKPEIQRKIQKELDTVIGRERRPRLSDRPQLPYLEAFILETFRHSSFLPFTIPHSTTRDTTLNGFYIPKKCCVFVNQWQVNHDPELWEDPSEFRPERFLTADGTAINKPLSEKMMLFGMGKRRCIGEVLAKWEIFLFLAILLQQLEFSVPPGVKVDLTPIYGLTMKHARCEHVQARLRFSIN

Data set [10] concerns the target T1, Cytochrome P450 2C9. This is another data set of the same source.
Data set [11] deals with T7, G-protein coupled receptor 35 (Homo sapiens, UniProt Q9HC97). Description: GPR35 antagonists blocking zaprinast-driven arrestin recruitment, primary screen, imaging, U2OS, beta-arrestin-GFP, zaprinast agonist (AID 2058).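 Further: antagonist potency meaning inhibition of agonist-induced arrestin redistribution.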 It is filed as functional. A general note: Activated receptors often draw arrestin, which recruitment assays turn into a signal.
In data set [12] the target is T7, G-protein coupled receptor 35. Put plainly: SAR Analysis for the identification of Selective Antagonists of ERK1/2 Activity in GPR35-Overexpressing U2OS Cells. [Related pubchem assays: 2079, 2058 ]. The data set is classed as functional, cell-based.
In data set [13] the target is G-protein coupled receptor 55 (Homo sapiens, UniProt Q9Y2T6). Description: GPR55 antagonists, SAR follow-up, counter-screen for GPR35 antagonist project, imaging, image-based (AID 2397). It is filed as functional.
The nature of data set [14]: cytotoxicity in HEK-293T cells, dose response, cytotoxicity control for BCR NF-kB inhibitor project, luminescence, B-cell screen hits (AID 489021).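 Further: HEK-293T cells carrying an NF-kB luciferase reporter; cells exposed to compound for about 14 hours before viability readout.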 It is filed as functional, cell-based.
Data set [15] in a line: growth induction of Burl-1 ts yeast mutant, dose response, counter-screen for SUMOylation pathway inhibitor project, whole organism, S. cerevisiae, luminescence (AID 463199). The data set is classed as functional.

Active and inactive are the calls of the source. Where only a bound is given, the exact number is not on record here.

T3 sequence (P41145 whole entry): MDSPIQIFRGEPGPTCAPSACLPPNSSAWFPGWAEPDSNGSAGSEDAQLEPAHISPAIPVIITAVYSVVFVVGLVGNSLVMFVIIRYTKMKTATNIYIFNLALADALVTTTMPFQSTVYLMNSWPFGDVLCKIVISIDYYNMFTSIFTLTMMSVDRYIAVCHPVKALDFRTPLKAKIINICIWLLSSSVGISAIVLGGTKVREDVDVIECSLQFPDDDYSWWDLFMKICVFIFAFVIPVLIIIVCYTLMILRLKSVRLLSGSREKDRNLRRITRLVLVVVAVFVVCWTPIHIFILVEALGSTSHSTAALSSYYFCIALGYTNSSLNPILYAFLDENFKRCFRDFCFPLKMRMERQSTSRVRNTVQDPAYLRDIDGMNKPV
T7 sequence (Q9HC97 whole entry): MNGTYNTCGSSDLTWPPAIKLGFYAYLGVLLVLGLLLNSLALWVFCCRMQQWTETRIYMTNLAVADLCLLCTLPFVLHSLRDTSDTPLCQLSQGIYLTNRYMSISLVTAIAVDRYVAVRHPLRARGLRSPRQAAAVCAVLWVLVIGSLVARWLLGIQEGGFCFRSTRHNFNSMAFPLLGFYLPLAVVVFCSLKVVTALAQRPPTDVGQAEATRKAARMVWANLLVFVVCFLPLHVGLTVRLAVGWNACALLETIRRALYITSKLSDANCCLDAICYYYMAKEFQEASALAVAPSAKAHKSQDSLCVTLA
T1 sequence (P11712 whole entry): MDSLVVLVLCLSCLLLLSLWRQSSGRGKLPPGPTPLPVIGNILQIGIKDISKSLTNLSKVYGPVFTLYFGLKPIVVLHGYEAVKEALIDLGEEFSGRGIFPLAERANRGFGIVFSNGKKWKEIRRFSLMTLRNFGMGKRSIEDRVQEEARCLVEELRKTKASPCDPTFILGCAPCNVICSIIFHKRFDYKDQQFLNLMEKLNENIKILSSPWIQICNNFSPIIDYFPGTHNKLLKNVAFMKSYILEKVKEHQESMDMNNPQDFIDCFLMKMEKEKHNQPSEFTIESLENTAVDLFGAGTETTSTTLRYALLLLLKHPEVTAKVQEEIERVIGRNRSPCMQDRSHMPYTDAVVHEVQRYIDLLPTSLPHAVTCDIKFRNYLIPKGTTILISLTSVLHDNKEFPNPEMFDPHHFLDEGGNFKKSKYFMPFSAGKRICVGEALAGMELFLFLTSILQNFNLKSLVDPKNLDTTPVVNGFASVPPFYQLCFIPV
T2 sequence (P35372 whole entry): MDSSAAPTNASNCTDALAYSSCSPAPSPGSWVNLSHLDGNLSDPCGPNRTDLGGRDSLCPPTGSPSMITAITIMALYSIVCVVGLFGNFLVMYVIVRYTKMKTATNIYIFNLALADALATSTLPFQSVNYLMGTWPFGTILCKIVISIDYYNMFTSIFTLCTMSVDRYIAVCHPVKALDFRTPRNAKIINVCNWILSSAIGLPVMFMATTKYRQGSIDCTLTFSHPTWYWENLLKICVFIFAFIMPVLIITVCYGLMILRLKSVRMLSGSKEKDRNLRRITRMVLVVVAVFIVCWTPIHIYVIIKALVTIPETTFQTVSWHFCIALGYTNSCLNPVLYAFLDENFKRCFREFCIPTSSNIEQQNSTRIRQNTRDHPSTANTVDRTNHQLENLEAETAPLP
T4 sequence (P41143 whole entry): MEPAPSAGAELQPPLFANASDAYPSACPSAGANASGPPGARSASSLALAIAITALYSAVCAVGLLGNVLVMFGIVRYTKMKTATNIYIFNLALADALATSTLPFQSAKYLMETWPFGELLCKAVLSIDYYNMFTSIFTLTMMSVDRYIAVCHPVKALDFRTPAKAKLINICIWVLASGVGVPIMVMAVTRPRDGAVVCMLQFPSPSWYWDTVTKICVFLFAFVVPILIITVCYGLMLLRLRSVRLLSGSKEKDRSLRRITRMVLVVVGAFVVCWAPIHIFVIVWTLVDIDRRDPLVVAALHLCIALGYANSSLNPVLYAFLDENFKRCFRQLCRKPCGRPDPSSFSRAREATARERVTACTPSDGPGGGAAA
Chain of CAAX prenyl protease 1 (P47154 whole entry): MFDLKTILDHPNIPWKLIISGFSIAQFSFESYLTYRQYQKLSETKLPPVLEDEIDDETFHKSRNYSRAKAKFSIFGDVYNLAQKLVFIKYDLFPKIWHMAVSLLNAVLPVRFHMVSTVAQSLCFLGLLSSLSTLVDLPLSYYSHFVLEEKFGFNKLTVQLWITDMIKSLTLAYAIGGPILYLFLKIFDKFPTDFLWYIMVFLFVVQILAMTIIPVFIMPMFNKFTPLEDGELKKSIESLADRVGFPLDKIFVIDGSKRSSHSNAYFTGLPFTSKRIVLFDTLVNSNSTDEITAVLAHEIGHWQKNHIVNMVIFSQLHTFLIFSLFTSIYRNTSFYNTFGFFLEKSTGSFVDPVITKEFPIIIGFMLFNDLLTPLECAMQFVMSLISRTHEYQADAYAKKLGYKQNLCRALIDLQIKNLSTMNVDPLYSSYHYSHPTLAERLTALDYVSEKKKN
Chain of Trypsin (P00761 whole entry): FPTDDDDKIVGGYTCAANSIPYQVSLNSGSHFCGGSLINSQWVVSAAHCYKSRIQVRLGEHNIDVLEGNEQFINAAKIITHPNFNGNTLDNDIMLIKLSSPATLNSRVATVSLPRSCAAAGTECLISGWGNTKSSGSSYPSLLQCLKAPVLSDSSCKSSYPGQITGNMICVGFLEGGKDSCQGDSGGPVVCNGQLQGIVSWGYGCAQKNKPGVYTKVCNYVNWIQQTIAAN
Chain of Cytochrome P450 2C19 (P33261 whole entry): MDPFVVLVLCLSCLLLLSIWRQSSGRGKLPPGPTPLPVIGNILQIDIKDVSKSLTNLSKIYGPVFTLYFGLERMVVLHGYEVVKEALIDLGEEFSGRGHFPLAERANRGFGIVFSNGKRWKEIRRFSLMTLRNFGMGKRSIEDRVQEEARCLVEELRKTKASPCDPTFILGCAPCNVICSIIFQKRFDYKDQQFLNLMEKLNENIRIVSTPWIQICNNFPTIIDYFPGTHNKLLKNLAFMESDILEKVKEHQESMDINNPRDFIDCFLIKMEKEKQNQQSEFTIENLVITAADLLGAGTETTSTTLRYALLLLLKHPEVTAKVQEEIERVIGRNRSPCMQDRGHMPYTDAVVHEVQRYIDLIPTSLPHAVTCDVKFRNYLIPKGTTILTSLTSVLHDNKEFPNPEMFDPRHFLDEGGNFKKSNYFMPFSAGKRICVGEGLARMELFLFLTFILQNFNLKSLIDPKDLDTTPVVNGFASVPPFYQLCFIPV
Chain of Cytochrome P450 2D6 (P10635 whole entry): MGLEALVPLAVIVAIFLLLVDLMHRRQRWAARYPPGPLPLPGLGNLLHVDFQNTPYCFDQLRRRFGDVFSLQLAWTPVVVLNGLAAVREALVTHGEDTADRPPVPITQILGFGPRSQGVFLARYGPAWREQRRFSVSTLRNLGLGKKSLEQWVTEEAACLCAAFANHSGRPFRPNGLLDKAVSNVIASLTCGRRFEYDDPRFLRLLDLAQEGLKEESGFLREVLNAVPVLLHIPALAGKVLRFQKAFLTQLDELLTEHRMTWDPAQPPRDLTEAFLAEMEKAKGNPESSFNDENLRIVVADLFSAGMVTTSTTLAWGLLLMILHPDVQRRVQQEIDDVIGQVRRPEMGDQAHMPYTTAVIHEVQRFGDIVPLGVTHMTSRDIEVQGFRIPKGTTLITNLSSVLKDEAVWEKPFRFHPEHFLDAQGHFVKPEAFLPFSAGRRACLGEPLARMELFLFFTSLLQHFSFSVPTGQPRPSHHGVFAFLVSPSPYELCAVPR
Chain of G-protein coupled receptor 55 (Q9Y2T6 whole entry): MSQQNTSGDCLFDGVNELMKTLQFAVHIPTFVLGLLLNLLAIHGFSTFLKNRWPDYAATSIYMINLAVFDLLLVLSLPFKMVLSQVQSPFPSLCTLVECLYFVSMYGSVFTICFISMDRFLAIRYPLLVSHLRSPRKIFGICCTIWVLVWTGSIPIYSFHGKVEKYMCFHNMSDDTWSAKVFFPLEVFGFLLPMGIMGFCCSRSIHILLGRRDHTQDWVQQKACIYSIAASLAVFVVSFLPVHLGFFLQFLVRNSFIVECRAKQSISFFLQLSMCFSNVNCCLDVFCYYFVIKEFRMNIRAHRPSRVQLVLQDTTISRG

Broadly, the AC50 is the midpoint of the concentration-response curve, whichever way the signal moves. `COc1ccc(-c2cc3ccccc3n2CC(O)CNCCO)cc1` (configuration not stated): the figures for the AC50 at Trypsin, on CAAX prenyl protease 1 and at Cytochrome P450 2C9 [1] were 17.3 µM (active), 11.5 µM (active) and 17.8 µM (inconclusive), respectively.
In general, IC50 refers to the point on the concentration scale where inhibition reaches its midpoint. Broadly, the EC50 is the concentration at which the effect is half-maximal. On to `COc1ccc(CSc2nnc(-c3ccccn3)n2Cc2ccco2)cc1`, for which the IC50 (at Mu-type opioid receptor [2]; in [3]; in [7]) was > 32 µM (inactive) in each case. Further, the EC50 on Mu-type opioid receptor [4] is > 32 µM (inactive); in [5] it was 7.69 µM (active); in data set [6] it was > 32 µM (inactive); in [8] it was 12.4 µM (inactive).
`CC1(C)N=C(N)N=C(Nc2ccccc2)N1`: the EC50 in data set [9] is 1.52 µM (active); at Streptokinase A it was > 150 µM (not active); in the data set with Streptococcus, > 150 µM (not active). The AC50 entry on Cytochrome P450 2C19 is “inactive”; on Cytochrome P450 2D6, 39.8 µM (inconclusive); on Cytochrome P450 1A2, “inactive”; on Cytochrome P450 2C9 [10] it was “inconclusive”.
In the case of `Cc1ccc(/C=C2\SC(=S)N(CCCC(=O)Nc3ccc(O)cc3)C2=O)cc1`, the IC50 in data set [11] is 744 nM (active); in data set [12], 253 nM (active); in data set [13] it was > 32 µM (inactive); in data set [14] it was > 80 µM (inactive).
For the molecule `O=C(c1cc(F)ccc1F)C1CCCN(C(=O)c2ccc3nccnc3c2)C1` (configuration not stated), the concentration at half-maximal activity (AC50) in data set [15] is 78.3 µM (active).

(Values after ChEMBL document CHEMBL1201862, “PubChem BioAssay data set” (2004).)
